Source: paper PMC7356998, “Intrinsic Dissolution Rate Profiling of Poorly Water-Soluble Compounds in Biorelevant Dissolution Media” (Pharmaceutics, 2020)
In brackets after ≈: the same amount, converted by molar mass. Like-named read-outs stand apart in the source and are kept apart here. Marks after values point to notes of the source that are not given here.

Key:
[1] = apparent solubility, cited from earlier work; for SFaSSIF-V1: FaSSIF-V1 pH 6.5; for SFeSSIF-V1: FeSSIF-V1 pH 5
[2] = Intrinsic dissolution rate from controlled suspensions (SIDR), μDiss Profiler; format: physicochemical; conditions: for IDRFaSSIF-V1 / IDRFaSSIF-V2 / IDRFeSSIF-V2: suspension (S), 100 rpm, mean ± SD; for IDRFaSSIF-V1: FaSSIF-V1 pH 6.5, 37 °C; for IDRFaSSIF-V2: FaSSIF-V2 pH 6.5, 37 °C; for IDRFeSSIF-V2: FeSSIF-V2 pH 5.8, 37 °C; for IDR in fed-state medium (FeSSIF-V1) compared to fasted-state (FaSSIF-V1): suspension assays
Method: Controlled suspensions of the APIs were prepared by tip ultrasonication in suspension media. For compatibility reasons, the suspension medium composition was 2% PVP K30 and 0.2% SDS in MilliQ water for acidic and neutral compounds or 1% HPMC and 0.2% SDS in MilliQ water for basic compounds. Suspension media were stirred for at least an hour until a clear solution was obtained. All suspensions were prepared at a concentration of 4 mg API/mL suspension medium by weighing 16 mg of the compound into a glass vial and adding 4 mL of the corresponding suspension medium. The suspension was then briefly vortexed prior to 5 min of tip ultrasonication using a Vibra-Cell sonicator mounted with a 13 mm (Ø) probe tip (Sonics, Newtown, CT, USA). The following settings were used: 20% amplitude, pulse 10 s on and 5 s off. The vial containing the suspension was placed in a beaker with ice during ultrasonication to avoid heating. Felodipine and griseofulvin were treated slightly differently to avoid forming a large fraction of submicron-sized particles. The felodipine suspension was only ultrasonicated for 1 min, and the griseofulvin suspension was used immediately after vortexing and without ultrasonication. All prepared suspensions were kept in an oven at 37 °C prior to use in the dissolution experiments. Dissolution experiments were performed within three hours of sample preparation.
The freshly prepared suspension was diluted (100 µL in 1 mL MilliQ water) and immediately used for determination of hydrodynamic particle size by dynamic light scattering (DLS; Litesizer 500, Anton Paar GmbH, Graz, Austria) at 25 °C. Peak values from the intensity-based particle size distribution were used for calculating total particle surface area in the suspension following the approach of Andersson et al.. In case of bimodal particle size distributions, an intensity peak weighted average particle size was calculated. The following assumptions were made for the surface area calculations: (i) spherical particles, (ii) constant particle size, and (iii) constant number of particles during the initial phase of the dissolution experiment (i.e., under sink conditions or <0.3 × Sapp). Using these assumptions, the volume of each particle (Vparticle) is:(1) Vparticle=4πr^3/3, where r is the mean radius of the suspended particles. The particle surface area (SAparticle) is:(2) SAparticle=4πr^2, and the volume of compound (Vmaterial) added to the dissolution medium is:(3) Vmaterial=m/ρ, where m is the total mass of compound added and ρ is the density of the compound. The total number of particles (n) in the suspension can thus be calculated from:(4) nparticles=Vmaterial/Vparticle
Finally, the total surface area (A, cm^2) of all particles present in the suspension added to the dissolution medium is calculated through:(5) A=nparticlesSAparticle
Dissolution experiments were carried out in a small-scale dissolution apparatus using in situ fiber optic probes to measure the amount of drug dissolved over time by UV absorbance (μDiss Profiler, Pion Inc., Billerica, MA, USA). Drug dissolution was carried out from suspensions (S) or discs (D) depending on the solubility of the compound in the biorelevant media studied (Table 3). […].
Standard curves were established by adding aliquots of DMSO stock solutions of the compounds to 3 mL of biorelevant medium, respectively. Dissolution media were prepared following the protocol provided by Biorelevant.com Ltd. and used within 48 h after their preparation. The media were incubated at 37 °C for at least one hour prior to use in the dissolution experiments. The hydrodynamic diameter of the micelles/vesicles formed in the biorelevant media were measured by DLS (Table 2). […] The biorelevant dissolution medium was maintained at 37 °C in the μDiss Profiler and stirred at 800 rpm during addition of the DMSO stock aliquots. […]

[3] = Apparent solubility estimated from dissolution experiments in the μDiss Profiler; format: physicochemical; conditions: for solubility thermodynamic: thermodynamic from solid
Method: If literature values were not available, Sapp values were estimated from the dissolution experiments either from the steady state concentration reached during dissolution making use of an excess amount material, or by nonlinear regression analysis of the dissolution data in GraphPad Prism 7.04 (GraphPad Software Inc., San Diego, CA, USA). […] In these experiments, an excess amount of drug was added to triplicate Eppendorf tubes containing 1 mL of the respective dissolution medium. The tubes were vortexed and placed in a 37 °C incubator. Samples for HPLC analysis were taken 24, 48, and 72 h (triplicates at each time point) after initiation of the experiment to ensure that equilibrium had been reached. The samples were centrifuged at 37 °C, 23,000 g for 10 min (Heraeus Megafuge 8R, Thermo Scientific, Waltham, MA, USA). The supernatant was sampled, diluted 1:1 with acetonitrile, and kept refrigerated until HPLC analysis. The concentrations of the dissolved drugs were determined using a HPLC (Agilent Technologies 1290 Infinity, Santa Clara, CA, USA) with a Zorbax Eclipse XDB-C18 column (4.6 × 100 mm; Agilent Technologies, Santa Clara, CA, USA) kept at 40 °C. The injection volumes were 20 μL. A mobile phase 0.1% formic acid in acetonitrile: 0.1% formic acid in water 60:40 (v/v) and an isocratic flow rate at 1 mL/min were used for both naproxen and ethinylestradiol. UV absorbances were monitored at a wavelength of 232 nm for naproxen and 315 nm for ethinylestradiol. The retention time was 1.76 min for naproxen and 1.85 min for ethinylestradiol. Dissolution experiments were carried out in a small-scale dissolution apparatus using in situ fiber optic probes to measure the amount of drug dissolved over time by UV absorbance (μDiss Profiler, Pion Inc., Billerica, MA, USA). Drug dissolution was carried out from suspensions (S) or discs (D) depending on the solubility of the compound in the biorelevant media studied (Table 3). […] Glass vials (six in parallel), each containing 15 mL of biorelevant dissolution medium and a crossbar stirrer, were used for the dissolution experiments. The stirring rate was set to 100 rpm. Freshly prepared API suspensions were briefly vortexed to re-disperse any sediments and 500 μL of suspension was added to each vial to initiate the experiment. […] Experiments were run for at least 20 min with data collected every 1 s for the first 8 min and then once per minute for the remaining time. All dissolution experiments from suspensions were carried out in triplicate.

[4] = Intrinsic dissolution rate from miniaturized discs (DIDR), μDiss Profiler; format: physicochemical; conditions: disc (D), 100 rpm, mean ± SD; for IDRFaSSIF-V1: FaSSIF-V1 pH 6.5, 37 °C
Method: Dissolution experiments were carried out in a small-scale dissolution apparatus using in situ fiber optic probes to measure the amount of drug dissolved over time by UV absorbance (μDiss Profiler, Pion Inc., Billerica, MA, USA). Drug dissolution was carried out from suspensions (S) or discs (D) depending on the solubility of the compound in the biorelevant media studied (Table 3). […] Standard curves were established by adding aliquots of DMSO stock solutions of the compounds to 3 mL of biorelevant medium, respectively. Dissolution media were prepared following the protocol provided by Biorelevant.com Ltd. and used within 48 h after their preparation. The media were incubated at 37 °C for at least one hour prior to use in the dissolution experiments. The hydrodynamic diameter of the micelles/vesicles formed in the biorelevant media were measured by DLS (Table 2). […] Stirring was turned off while measuring the UV absorbance for each aliquot and the standard curve was established based on six aliquots. […] Intrinsic dissolution rates will henceforth be denoted 'IDR' for both SIDR and DIDR values determined in this study (see Table 3 for details).

[5] = FaSSIF-V1, 37 °C, pH 6.5, fassif, FaSSIF-V1 pH 6.5, determined from dissolution experiments in the μDiss Profiler, read-out: SFaSSIF-V1
[6] = FaSSIF-V1 pH 6.5, determined from dissolution experiments in the μDiss Profiler
[7] = FeSSIF-V1, 37 °C, pH 5, fessif, FeSSIF-V1 pH 5, determined from dissolution experiments in the μDiss Profiler, read-out: SFeSSIF-V1

Row | SMILES | SFaSSIF-V1 [1] | SFeSSIF-V1 [1] | IDRFaSSIF-V1 [2] [μg/min/cm^2] | IDRFaSSIF-V2 [2] [μg/min/cm^2] | IDRFeSSIF-V2 [2] [μg/min/cm^2] | other results
1 | COc1ccc(CCN2CCC(Nc3nc4ccccc4n3Cc3ccc(F)cc3)CC2)cc1 [Astemizole] | 97.9 ± 2.1 [15] μg/mL | 182 ± 1 [15] μg/mL | 8.6 ± 0.4 | 2.0 ± 0.2 | – | SFaSSIF-V1 ([1]; listed as astemizole): ~ 100 μg/mL
2 | CC(C)(Oc1ccc(CCNC(=O)c2ccc(Cl)cc2)cc1)C(=O)O [Bezafibrate] | – | – | 32.7 ± 3.9 | – | – | solubility thermodynamic [3, 5]: ~100 µg/mL (≈ 276 µM); SFaSSIF-V1 [3, 6]: 91.0 ± 8.9 µg/mL; SFeSSIF-V1 ([3]; FeSSIF-V1 pH 5, extrapolation of μDiss dissolution data by nonlinear regression (GraphPad Prism)): 105.7 ‡ μg/mL
3 | COc1ccccc1OCCNCC(O)COc1cccc2[nH]c3ccccc3c12 (stereo not shown) [Carvedilol] | 55.9 ± 1.0 [15] μg/mL | 305 ± 2 [15] μg/mL | 2.9 ± 0.5 | 1.5 ± 0.2 | 13.6 ± 0.6 | –
4 | C(=C\c1ccccc1)/CN1CCN(C(c2ccccc2)c2ccccc2)CC1 [Cinnarizine] | – | – | 0.3 ± 0.01 | – | – | –
5 | C#C[C@]1(O)CC[C@H]2[C@@H]3CCC4=Cc5oncc5C[C@]4(C)[C@H]3CC[C@@]21C [Danazol] | – | – | 0.14 ± 0.02 | – | – | IDR in fed-state medium (FeSSIF-V1) compared to fasted-state (FaSSIF-V1) [2]: 28 fold
6 | OCCN(CCO)c1nc(N2CCCCC2)c2nc(N(CCO)CCO)nc(N3CCCCC3)c2n1 [Dipyridamole] | 11.1 ± 3.0 [48] μg/mL | 148.9 ± 19.7 [48] μg/mL | 0.5 ± 0.05 | 0.5 ± 0.03 | 1.7 ± 0.3 | SFaSSIF-V1 ([1]; listed as dipyridamole): 11 to 13 µg/mL
7 | CCOC(=O)C1=C(C)NC(C)=C(C(=O)OC)C1c1cccc(Cl)c1Cl (stereo not shown) [Felodipine] | 31.8 ± 1.7 [7] μg/mL | 44.9 ± 9.2 [48] μg/mL | 0.8 ± 0.4 | 0.6 ± 0.2 | 1.5 ± 0.2 | –
8 | CC(C)OC(=O)C(C)(C)Oc1ccc(C(=O)c2ccc(Cl)cc2)cc1 [Fenofibrate] | – | – | 0.04 ± 0.002 | 0.05 ± 0.001 | 2.7 ± 0.3 | –
9 | CC(C)(Oc1ccc(C(=O)c2ccc(Cl)cc2)cc1)C(=O)O [Fenofibric acid] | – | – | – | – | – | IDRFaSSIF-V1 [4]: 227 ± 33 μg/min/cm^2; solubility thermodynamic [3, 5]: ~100 µg/mL (≈ 314 µM); SFaSSIF-V1 [3, 6]: 104.8 ± 1.0 µg/mL; solubility thermodynamic [3, 7]: 101 ± 3.8 µg/mL (≈ 318 µM)
10 | COC1=CC(=O)C[C@@H](C)[C@]12Oc1c(Cl)c(OC)cc(OC)c1C2=O [Griseofulvin] | 23.4 ± 1.8 [41] μg/mL | 29.2 ± 3.4 [41] μg/mL | 3.7 ± 0.6 | – | – | IDR in fed-state medium (FeSSIF-V1) compared to fasted-state (FaSSIF-V1) [2]: lower
11 | COc1ccc2c(c1)c(CC(=O)O)c(C)n2C(=O)c1ccc(Cl)cc1 [Indomethacin] | 421.7 ± 17.6 [7] μg/mL | 109.0 ± 7.0 [15] μg/mL | – | – | – | IDRFaSSIF-V1 [4]: 31 ± 1.3 μg/min/cm^2
12 | Cc1cccc(Nc2ccccc2C(=O)O)c1C [Mefenamic acid] | – | – | 13.9 ± 2.0 | 11.9 ± 1.0 | 7.9 ± 2.1 | solubility thermodynamic [3, 5]: 36.6 ± 0.6 µg/mL (≈ 152 µM); solubility thermodynamic [3, 7]: 33.2 ± 0.7 µg/mL (≈ 138 µM)
13 | COc1ccc2cc([C@H](C)C(=O)O)ccc2c1 [Naproxen] | – | – | – | – | – | IDRFaSSIF-V1 [4]: 144 ± 12 μg/min/cm^2; IDRFaSSIF-V2 ([4]; FaSSIF-V2 pH 6.5, 37 °C): 179 ± 11 μg/min/cm^2
14 | COc1ccc2c(c1OC)C(=O)O[C@@H]2[C@H]1c2c(cc3c(c2OC)OCO3)CCN1C [Noscapine] | – | – | 1.1 ± 0.2 | 1.2 ± 0.1 | 5.2 ± 0.8 | SFaSSIF-V1 ([3]; FaSSIF-V1 pH 6.5, extrapolation of μDiss dissolution data by nonlinear regression (GraphPad Prism)): 13.4 ‡ μg/mL; SFaSSIF-V1 ([3]; FaSSIF-V1 pH 6.5, extrapolation of μDiss dissolution data by nonlinear regression (GraphPad Prism), listed as noscapine): 11 to 13 µg/mL
15 | CC(=O)[C@H]1CC[C@H]2[C@@H]3CCC4=CC(=O)CC[C@]4(C)[C@H]3CC[C@]12C [Progesterone] | 25.5 ± 1.1 [50] μg/mL | 78.6 ± 16.2 [41] μg/mL | 16.8 ± 0.5 | – | – | –
16 | CN1CC(=O)N2[C@H](c3ccc4c(c3)OCO4)c3[nH]c4ccccc4c3C[C@@H]2C1=O [Tadalafil] | 5.9 ± 0.7 [7] μg/mL | – | 3.4 ± 0.7 | 1.3 ± 0.8 | – | solubility thermodynamic [3, 7]: 21 ± 0.5 µg/mL (≈ 53.9 µM); IDR in fed-state medium (FeSSIF-V1) compared to fasted-state (FaSSIF-V1) [2]: double
17 | Cc1c(Cl)cccc1Nc1ccccc1C(=O)O [Tolfenamic acid] | 63.0 ± 2.7 [15] μg/mL | 41.0 ± 0.5 [15] μg/mL | 4.1 ± 0.8 | 12.9 ± 0.9 | 4.8 ± 0.6 | –
